The values that follow come from patent US20210047291A1, “PESTICIDALLY ACTIVE HETEROCYCLIC DERIVATIVES WITH SULFUR CONTAINING SUBSTITUENTS” (SYNGENTA PARTICIPATIONS AG, priority 2018, published 2021).

Holding throughout (format): in vivo
Test [1] concerns Frankliniella occidentalis (Western Flower Thrips). The experiment in a line: Example B22: Frankliniella occidentalis, mixed population, contact/feeding, French bean plants. Particulars: Concentration 50 ppm, FRANOC (contact). As for the experimental part: French bean plants were treated with diluted test solutions in a spray chamber. After drying plants were infested with a mixed aged thrips population. 7 days after infestation, samples were assessed for mortality.

In test [2] the test system is Spodoptera littoralis (Egyptian Cotton Leaf Worm). The experiment in a line: Example B9: Spodoptera littoralis, cotton leaf discs (mortality, anti-feeding, growth inhibition). Particulars: foliar, 72 h, application rate of 200 ppm, L1 larvae, 3 days after infestation, read-out: control (mortality, anti-feeding effect or growth inhibition). A digest of the protocol: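 Cotton leaf discs on agar sprayed with aqueous dilutions of 10,000 ppm DMSO stocks, dried, then infested with five L1 larvae. Mortality, anti-feeding and growth inhibition scored against untreated discs 3 days after infestation. Control recorded when any one category exceeds the untreated sample.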

Test [3] has as its system Myzus persicae (Green peach aphid). Briefly: Example B20: Myzus persicae, mixed population, systemic into soil (drench), pea seedlings. Particulars: Concentration 0.2 ppm, MYZUPE (drench). The procedure:
Pea seedlings cultivated in field soil and infested 1 day before treatment with mixed aged aphid population were treated as drench application and checked for mortality 7 days after treatment.

Test [4] concerns Bemisia tabaci (Cotton White Fly). The experiment in a line: Example B1: Bemisia tabaci feeding/contact activity, cotton leaf discs. Particulars: foliar, 144 h, application rate of 200 ppm, adult white flies, 6 days after incubation. The procedure:
Cotton leaf discs were placed on agar in 24-well microtiter plates and sprayed with aqueous test solutions prepared from 10,000 ppm DMSO stock solutions. After drying the leaf discs were infested with adult white flies. The samples were checked for mortality 6 days after incubation.

Test [5] deals with Myzus persicae (Green peach aphid). Briefly: Example B6: Myzus persicae systemic activity, pea seedlings. To be noted: Myzus persicae, 144 h; test rate of 24 ppm; mixed ages; 6 days after placing seedlings into test solutions; read-out: mortality. The procedure:
Roots of pea seedlings infested with an aphid population of mixed ages were placed directly into aqueous test solutions prepared from 10,000 DMSO stock solutions. The samples were assessed for mortality 6 days after placing seedlings into test solutions.

For test [6], the system named is Tetranychus urticae (Two-Spotted Spider Mite). Briefly: Example B10: Tetranychus urticae feeding/contact activity, bean leaf discs. To be noted: foliar, 192 h, application rate of 200 ppm, mixed population (mobile stages), 8 days after infestation. As for the experimental part:
Bean leaf discs on agar in 24-well microtiter plates were sprayed with aqueous test solutions prepared from 10,000 ppm DMSO stock solutions. After drying the leaf discs were infested with a mite population of mixed ages. The samples were assessed for mortality on mixed population (mobile stages) 8 days after infestation.

For test [7], the system named is Euschistus heros (Neotropical Brown Stink Bug). The experiment in a line: Example B3: Euschistus heros, soybean leaves, N2 nymphs. To be noted: Euschistus heros, 120 h; application rate of 200 ppm; N2 nymphs; 5 days after infestation; read-out: effect in at least one of the two categories (mortality or growth inhibition). The procedure:
Soybean leaves on agar in 24-well microtiter plates were sprayed with aqueous test solutions prepared from 10,000 ppm DMSO stock solutions. After drying the leaves were infested with N2 nymphs. The samples were assessed for mortality and growth inhibition in comparison to untreated samples 5 days after infestation.

The test system of test [8] is Frankliniella occidentalis (Western Flower Thrips). The experiment in a line: Example B4: Frankliniella occidentalis feeding/contact activity, sunflower leaf discs. Particulars: foliar, 168 h, application rate of 200 ppm, mixed ages, 7 days after infestation. The procedure: Sunflower leaf discs were placed on agar in 24-well microtiter plates and sprayed with aqueous test solutions prepared from 10,000 DMSO stock solutions. After drying the leaf discs were infested with a Frankliniella population of mixed ages. The samples were assessed for mortality 7 days after infestation.

The subject of test [9] is Myzus persicae (Green peach aphid). The experiment in a line: Example B19: Myzus persicae, mixed population, contact/feeding, pepper plants. To be noted: Concentration 3 ppm, MYZUPE (contact). The procedure: Pepper plants were infested with mixed aged aphid population and were treated 1 day after infestation with diluted test solutions in a spray chamber. 5 days after treatment samples were assessed for mortality.

The subject of test [10] is Frankliniella occidentalis (Western Flower Thrips). The experiment in a line: Example B23: Frankliniella occidentalis, mixed population, systemic into soil (drench), French bean plants. To be noted: Concentration 3 ppm, FRANOC (drench). The procedure:
French bean plants cultivated in field soil, were treated via drench application and 1 day after treatment they were infested with mixed aged thrips population. 8 days after infestation samples were assessed for mortality and phytotoxicity symptoms.

The test system of test [11] is Myzus persicae (Green peach aphid). The experiment in a line: Example B5: Myzus persicae feeding/contact activity, sunflower leaf discs. Particulars: Myzus persicae, foliar, 144 h; application rate of 200 ppm; mixed ages; 6 days after infestation; read-out: mortality. The procedure:
Sunflower leaf discs were placed onto agar in a 24-well microtiter plate and sprayed with aqueous test solutions prepared from 10,000 ppm DMSO stock solutions. After drying, the leaf discs were infested with an aphid population of mixed ages. The samples were assessed for mortality 6 days after infestation.

The test system of another test is Melodoigyne incognita. The experiment in a line: Example B14: Melodoigyne incognita juvenile mobility, in vitro profiling in 96 well plate. Particulars: 200 ppm; after 24 h; second stage juveniles; read-out: control (juvenile mobility). A digest of the protocol:
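Second-stage juveniles (100–150 per well, freshly harvested) were exposed in triplicate to test solutions prepared at 1000, 200, 100, 50, 25 and 12.5 ppm before nematode suspension was added. Plates were kept 24 h at room temperature in the dark. Juvenile mobility was measured by imaging and compared with 12 untreated replicates.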

The subject of test [12] is Diabrotica Balteata (Corn Root Worm). Briefly: Example B2: Diabrotica balteata, maize sprouts, L2 larvae. To be noted: Diabrotica balteata, 96 h, application rate of 200 ppm; L2 larvae; 4 days after infestation; read-out: effect in at least one of the two categories (mortality or growth inhibition). As for the experimental part: Maize sprouts placed onto an agar layer in 24-well microtiter plates were treated with aqueous test solutions prepared from 10,000 ppm DMSO stock solutions by spraying. After drying, the plates were infested with L2 larvae (6 to 10 per well). The samples were assessed for mortality and growth inhibition in comparison to untreated samples 4 days after infestation.

The test system of test [13] is Nilaparvata lugens (Brown Plant Hopper). The experiment in a line: Example B21: Nilaparvata lugens, larvicide, feeding/contact, rice plants. To be noted: Concentration 3 ppm, NILALU (contact). The procedure:
Rice plants were treated with the diluted test solutions in a spray chamber. After drying plants were infested with ˜20 N3 nymphs. 7 days after the treatment samples were assessed for mortality and growth regulation.

Test [14] relates to Plutella xylostella (Diamond Back Moth). The experiment in a line: Example B7: Plutella xylostella, artificial diet, L2 larvae. Particulars: 120 h, application rate of 200 ppm, L2 larvae, 5 days after infestation, read-out: effect in at least one of the two categories (mortality or growth inhibition). As for the experimental part:
24-well microtiter plates with artificial diet were treated with aqueous test solutions prepared from 10,000 ppm DMSO stock solutions by pipetting. After drying, the plates were infested with L2 larvae (10 to 15 per well). The samples were assessed for mortality and growth inhibition in comparison to untreated samples 5 days after infestation.

For test [15] the test system is unchanged. Briefly: Example B12: Plutella xylostella, artificial diet, eggs. To be noted: 192 h, application rate of 200 ppm, 8 days after infestation, read-out: effect in at least one of the two categories (mortality or growth inhibition). As for the experimental part:
24-well microtiter plates with artificial diet were treated with aqueous test solutions prepared from 10,000 ppm DMSO stock solutions by pipetting. After drying, Plutella eggs were pipetted through a plastic stencil onto a gel blotting paper and the plate was closed with it. The samples were assessed for mortality and growth inhibition in comparison to untreated samples 8 days after infestation. The following compounds gave an effect of at least 80% in at least one of the two categories (mortality or growth inhibition) at an application rate of 200 ppm: P46.

In the case of `CCS(=O)(=O)c1cc(N(C)C(C)=O)cnc1-c1nc2cc(C(F)(F)F)ncc2n1C` [P6, N-[5-ethylsulfonyl-6-[3-methyl-6-(trifluoromethyl)imidazo[4,5-c]pyridin-2-yl]-3-pyridyl]-N-methyl-acetamide], the mortality (as a rule, the percentage killed) at 50 ppm in test [1] came out at 98%. Further, in test [2], the percent control (mortality, anti-feedant effect or growth inhibition) at 200 ppm is not below 80%. In test [3], this compound came in with a mortality at 0.2 ppm of 92.5%. The mortality at 200 ppm in test [4], in [6], in [8] and in test [11] was not below 80% in each case. Also, in test [5], the mortality at 24 ppm is not below 80%. The percent effect (mortality or growth inhibition) at 200 ppm in [7], in test [12] and in [14] was not below 80% each time. The mortality at 3 ppm is 70% in test [9], 92.5% in [10] and 80% in [13]. The pest or weed control at 200 ppm in the test with Melodoigyne incognita was not below 80%.
For the compound `CCS(=O)(=O)c1cc(N(C(C)=O)C(C)C)cnc1-c1nc2cc(C(F)(F)F)ncc2n1C` [P46, N-[5-ethylsulfonyl-6-[3-methyl-6-(trifluoromethyl)imidazo[4,5-c]pyridin-2-yl]-3-pyridyl]-N-isopropyl-acetamide], the mortality at 200 ppm in test [4], in [6], in test [8] and in test [11] was not below 80% throughout. Moreover, in test [5], the mortality at 24 ppm was not below 80%. Moreover, the percent effect (mortality or growth inhibition) at 200 ppm in [7], in test [15] and in [12] was not below 80% throughout.
